Test results reported in patent publication US12404232B2, “Compounds and compositions for intracellular delivery of therapeutic agents” (ModernaTX, Inc., priority 2015, dated 2025).

Experiments:
mice [1] = experiment: Luc expression (bioluminescence, total flux) after intravenous administration to mice; assay type: in vivo; settings: for AUC (p/s*h): Luc total flux (Table 3D); for 6 h Lipid/MC3 G.M. Luc Expression / AUC (h*p/s): i.v. administration; for 6 h Lipid/MC3 G.M. Luc Expression: geometric mean; for AUC (h*p/s): total Luc flux (Table 3C)
Experimental: In order to monitor how effectively various nanoparticle compositions deliver therapeutic and/or prophylactics to targeted cells, different nanoparticle compositions including a particular therapeutic and/or prophylactic (for example, a modified or naturally occurring RNA such as an mRNA) are prepared and administered to rodent populations. Mice are intravenously, intramuscularly, intraarterially, or intratumorally administered a single dose including a nanoparticle composition with a formulation such as those provided in Example 3. In some instances, mice may be made to inhale doses. Dose sizes may range from 0.001 mg/kg to 10 mg/kg, where 10 mg/kg describes a dose including 10 mg of a therapeutic and/or prophylactic in a nanoparticle composition for each 1 kg of body mass of the mouse. A control composition including PBS may also be employed.
Upon administration of nanoparticle compositions to mice, dose delivery profiles, dose responses, and toxicity of particular formulations and doses thereof can be measured by enzyme-linked immunosorbent assays (ELISA), bioluminescent imaging, or other methods. For nanoparticle compositions including mRNA, time courses of protein expression can also be evaluated. Samples collected from the rodents for evaluation may include blood, sera, and tissue (for example, muscle tissue from the site of an intramuscular injection and internal tissue); sample collection may involve sacrifice of the animals.
The efficacy of the nanoparticle compositions presented in Table 1A was evaluated with a bioluminescence study. Formulations were administered intravenously to mice (n=6) at a dosage of 0.5 mg/kg (mpk) and bioluminescence measured at 3, 6, and 24 hour time points. The standard MC3 formulation and, in some instances, a control (e.g., a PBS control) were evaluated for comparison. […] In general, flux decreased as time progressed to less than 10% of the initial flux.
The total flux (measured by area under the curve, AUC) induced by administration of a formulation including a given lipid relative to that induced by administration of a formulation including MC3 was also measured for several lipids.
The tolerability and efficacy of nanoparticle compositions to non-human primates was also investigated using sample formulations including Compounds 18, 25, 26, and 48 and MC3 to determine if these compounds are differentiated in terms of protein expression. The formulations were prepared according to the standard MC3 formulation described above and included an hEPO mRNA. Table 30 includes details of the compositions tested, while Table 31 summarizes the relative expression of Luc and hEPO mRNA in mice and rats. Expression was measured 6 hours after administration.

[2] = Particle size and polydispersity index of nanoparticle compositions (Zetasizer Nano ZS); assay type: physicochemical; settings: for PDI: nanoparticle composition 50:10:38.5:1.5 mol % (Table 1A); for Size (nm): nanoparticle composition lipid:DSPC:cholesterol:PEG-DMG 50:10:38.5:1.5 mol %, mRNA encoding Luc or hEPO (Table 1A)
Description: Nanoparticle compositions may be characterized by a variety of methods. For example, microscopy (e.g., transmission electron microscopy or scanning electron microscopy) may be used to examine the morphology and size distribution of a nanoparticle composition. Dynamic light scattering or potentiometry (e.g., potentiometric titrations) may be used to measure zeta potentials. Dynamic light scattering may also be utilized to determine particle sizes. Instruments such as the Zetasizer Nano ZS (Malvern Instruments Ltd, Malvern, Worcestershire, UK) may also be used to measure multiple characteristics of a nanoparticle composition, such as particle size, polydispersity index, and zeta potential.
A Zetasizer Nano ZS (Malvern Instruments Ltd, Malvern, Worcestershire, UK) can be used to determine the particle size, the polydispersity index (PDI) and the zeta potential of the nanoparticle compositions in 1×PBS in determining particle size and 15 mM PBS in determining zeta potential.
Initial studies were performed to compare the delivery efficiency of nanoparticle compositions including various compounds according to Formula (I), (IA), (II), (IIa), (IIb), (IIc), (IId) or (IIe). The cationic lipid MC3 is a current standard in the art. Accordingly, the standard MC3 formulation including about 50 mol % MC3, about 10 mol % DSPC, about 38.5 mol % cholesterol, and about 1.5 mol % PEG-DMG was used as a basis for this study. Nanoparticle compositions including DSPC as a phospholipid, cholesterol as a structural lipid, PEG-DMG as a PEG lipid, an RNA, and a compound according to Formula (I), (IA), (II), (IIa), (IIb), (IIc), (IId) or (IIe) selected from Compounds 1-159, 168-170, and 173-175 were prepared according to or via methods similar to those described in Examples 1 and 2. The ratios of the lipids were 50:10:38.5:1.5 mol % for the lipid according to Formula (I), (IA), (II), (IIa), (IIb), (IIc), (IId) or (IIe):DSPC:cholesterol:PEG-DMG. The RNA used was an mRNA encoding G5 luciferase (Luc) or G5 hEPO. Tables 1A-1B summarize the content and characteristics of the formulations. […]

mice [3] = experiment: Cytokine induction (IL-6, IP-10) in mice after intravenous administration; assay type: in vivo; parameters: IL-6 / IP-10: unit not given here; settings: 0.5 mpk, 6 hours
Description: The introduction of foreign material into a mammalian body induces an innate immune response that promotes cytokine production. Such immune responses to, for example, nanoparticle compositions including therapeutic and/or prophylactics, are undesirable. The induction of certain cytokines is thus measured to evaluate the […] of nanoparticle compositions. The concentrations of various cytokines in mice upon intravenous administration of nanoparticle compositions presented in Table 1A at a dosage of 0.5 mpk was measured at 6 hours. The standard MC3 formulation and a PBS control were also tested. As is evident in Table 7, IL-6 induction was highest for compositions including Compounds 1, 3, 9, 19, and 26, while IP-10 induction was highest for compositions including Compounds 3, 4, 7, 20, and 26. IL-6 induction was lowest for compositions including Compounds 4, 11, 12, and 28. IP-10 induction was lowest for compositions including Compounds 10, 11, 12, 13, 15, 17, and 18.
The expression of hEPO and cytokine induction in mice intravenously administered a nanoparticle composition at a dose of 0.5 mpk were measured at 3, 6, and 24 hours. […] The expression of hEPO in mice intramuscularly administered a nanoparticle composition from Table 1B at a dose of 0.01 mpk were measured at 3, 6, and 24 hours. […] (see also FIG. 9.)

PDI [2]	Size (nm) [2] [nm]	SMILES	AUC (p/s*h) (mice [1])	6 h Lipid/MC3 G.M. Luc Expression (mice [1])	AUC (h*p/s) (mice [1])	also measured
		CCCCCCCCC(CCCCCCCC)OC(=O)CCCCCCCN(CCO)CCCCCCCC(=O)OCC(CCCCCCC)OC (stereo not drawn) [Compound 148, Heptadecan-9-yl 8-((2-hydroxyethyl)(8-((2-methoxynonyl)oxy)-8-oxooctyl)amino)octanoate]	4.965E+011			
		CCCCCCCCCOC(=O)CCCCCCCN(CCO)CCCCCCCCCC(=O)OC(CCCCCC)CCCCCC [Compound 147, Tridecan-7-yl 10-((2-hydroxyethyl)(8-(nonyloxy)-8-oxooctyl)amino)decanoate]		8.13	5.63E+11	
		CCCCCCCCCC(=O)OCCCCCCCN(CCO)CCCCCCCOC(=O)C(CCCCCCCC)CCCCCCCC [Compound 151, 7-((7-(Decanoyloxy)heptyl)(2-hydroxyethyl)amino)heptyl 2-octyldecanoate]	7.010E+011			
0.15	69.2	CCCCCCCCCOC(=O)CCCCCCCN(CCCCCCCC(=O)OC(CCCCCCCC)CCCCCCCC)CCCNC(=S)NC [Compound 113, Heptadecan-9-yl 8-((3-(3-methylthioureido)propyl)(8-(nonyloxy)-8-oxooctyl)amino)octanoate]				
		CCCCCCCCC(CCCCCCCC)OC(=O)CCCCCCCN(C)CCCCCCCCCC(=O)OCCCCCCC [Compound 149, Heptyl 10-((8-(heptadecan-9-yloxy)-8-oxooctyl)(methyl)amino)decanoate]	1.057E+011			
0.11	65.4	CCCCCCCCC(CC)OC(=O)CCCN(CCO)CCCCCCCC(=O)OC(CCCCCCCC)CCCCCCCC (stereo not drawn) [Compound 72, Heptadecan-9-yl 8-((2-hydroxyethyl)(4-oxo-4-(undecan-3-yloxy)butyl)amino)octanoate]				
		CCCCCCCCC(CCCCCCCC)OC(=O)CCCCCCCN(CCO)CCCCCCCC(=O)N(C)CCCCCCCC [Compound 145, Heptadecan-9-yl 8-((2-hydroxyethyl)(8-(methyl(octyl)amino)-8-oxooctyl)amino)octanoate]		0.979	8.1E+10	
		CCCCCCCCC(CCCCCCCC)OC(=O)CCCCCCCN(CCO)CCCCCCCC(=O)OC(C)(C)C [Compound 155, tert-Butyl 8-((8-(heptadecan-9-yloxy)-8-oxooctyl)(2-hydroxyethyl)amino)octanoate]	1.266E+011			
		CCCCCCCCCOC(=O)CCCCCCCN(CCCCCCCC(=O)OC(CCCCCCCC)CCCCCCCC)CCN1CCN(C)CC1 [Compound 101, Heptadecan-9-yl 8-((2-(4-methylpiperazin-1-yl)ethyl)(8-(nonyloxy)-8-oxooctyl)amino)octanoate]		0.011	1.8E+09	
		CCCCCCCCC(CCCCCCCC)OC(=O)CCCCCCCN(CCO)CCCCCC(=O)N(C)CCCCCCCC [Compound 146, Heptadecan-9-yl 8-((2-hydroxyethyl)(6-(methyl(octyl)amino)-6-oxohexyl)amino)octanoate]		0.012	1.04E+09	
0.13	118	CCCCCCCCCOC(=O)CCCCCCCN(CCCCCCCC(=O)OC(CCCCCCCC)CCCCCCCC)CCCNC(=O)N(C)C [Compound 110, Heptadecan-9-yl 8-((3-(3,3-dimethylureido)propyl)(8-(nonyloxy)-8-oxooctyl)amino)octanoate]				
		CCCCCCCCCOC(=O)CCCCCCCN(CCCCCCCC(=O)OC(CCCCCCCC)CCCCCCCC)CCOCCO [Compound 154, Heptadecan-9-yl 8-((2-(2-hydroxyethoxy)ethyl)(8-(nonyloxy)-8-oxooctyl)amino)octanoate]	5.560E+010			
		CCCCCCCCCOC(=O)CCCCCCCN(CCO)CCCCCCCCCOC(=O)C(CCCCCC)CCCCCCCC (stereo not drawn) [Compound 134, 9-((2-Hydroxyethyl)(8-(nonyloxy)-8-oxooctyl)amino)nonyl 2-hexyldecanoate]		3.27	3.43E+11	
		CCCCCCCCCOC(=O)CCCCCCCN(CCO)CCCCCCCC(=O)OC(C)(C)C [Compound 158, tert-Butyl 8-((2-hydroxyethyl)(8-(nonyloxy)-8-oxooctyl)amino)octanoate]	1.211E+007			
		CCCCCCCCC(C)OC(=O)CCCCCCCN(CCO)CCCCCCCOC(=O)C(CCCCCCCC)CCCCCCCC (stereo not drawn) [Compound 135, 7-((8-(Decan-2-yloxy)-8-oxooctyl)(2-hydroxyethyl)amino)heptyl 2-octyldecanoate]		10.5	1.25E+12	
		CCCCCCCCCOC(=O)CCCCCCCN(CCO)CCCCCCC/C=C\C(CCCCCCCC)CCCCCCCC [Compound 152, Nonyl (Z)-8-((2-hydroxyethyl)(10-octyloctadec-8-en-1-yl)amino)octanoate]	2.855E+010			
0.11	89.1	CCCC/C=C\CCC(CC/C=C\CCCC)OC(=O)CCCCCCCN(CCO)CCCCCC(=O)OCCCCCCCCCCC [Compound 61, (5Z,12Z)-heptadeca-5,12-dien-9-yl 8-((2-hydroxyethyl)(6-oxo-6-(undecyloxy)hexyl)amino)octanoate]				
0.10	64.2	CCCCCCCCC(CC)OC(=O)CCCCCN(CCO)CCCCCCCC(=O)OC(CCCCCCCC)CCCCCCCC (stereo not drawn) [Compound 75, Heptadecan-9-yl 8-((2-hydroxyethyl)(6-oxo-6-(undecan-3-yloxy)hexyl)amino)octanoate]				
	111.5	CCCCCCCCCOC(=O)CCCCCCCN(CCCCO)CCCCCCCC(=O)OC(CCCCCCCC)CCCCCCCC [Compound 20, Heptadecan-9-yl 8-((4-hydroxybutyl)(8-(nonyloxy)-8-oxooctyl)amino) octanoate]				IL-6 (mice [3]): 126.83
0.14	69.4	CCCCCCCCC(CCCCCCCC)OC(=O)CCCCCCCN(CCO)CCCCCC(=O)OC(CCCCCCCC)C1CC1 (stereo not drawn) [Compound 128, Heptadecan-9-yl 8-((6-((1-cyclopropylnonyl)oxy)-6-oxohexyl)(2-hydroxyethyl)amino)octanoate]				
